{"source": "ChEMBL document CHEMBL1201862", "about": "“PubChem BioAssay data set” (2004)", "test_in_all_cases": "NCI anticancer screen, dose series, 48 h", "key": {"[1]": {"system": "Malme-3M"}, "[2]": {"system": "HT-29"}, "[3]": {"system": "OVCAR-8"}, "[4]": {"system": "MCF7"}, "[5]": {"system": "U-251"}, "[6]": {"system": "PC-3"}, "[7]": {"system": "NCI-H460"}, "[8]": {"system": "NCI-H522"}, "[9]": {"system": "DU-145"}, "[10]": {"system": "EKVX"}, "[11]": {"system": "SK-MEL-5"}, "[12]": {"system": "BT-549"}, "[13]": {"system": "SN12C"}, "[14]": {"system": "MDA-MB-435"}, "[15]": {"system": "IGROV-1"}, "[16]": {"system": "Hs-578T"}, "[17]": {"system": "SK-OV-3"}, "[18]": {"system": "K562"}, "[19]": {"system": "SF-539"}, "[20]": {"system": "NCI-H226"}, "[21]": {"system": "SK-MEL-2"}, "[22]": {"system": "SK-MEL-28"}, "[23]": {"system": "LOX IMVI"}, "[24]": {"system": "786-0"}, "[25]": {"system": "NCI/ADR-RES"}, "[26]": {"system": "M14"}, "[27]": {"system": "HOP-92"}, "[28]": {"system": "ACHN"}, "[29]": {"system": "SF-295"}, "[30]": {"system": "OVCAR-3"}, "[31]": {"system": "MDA-MB-231"}, "[32]": {"system": "SNB-75"}, "[33]": {"system": "OVCAR-4"}, "[34]": {"system": "SF-268"}, "[35]": {"system": "TK-10"}, "[36]": {"system": "HL-60"}, "[37]": {"system": "SR"}, "[38]": {"system": "UACC-257"}, "[39]": {"system": "OVCAR-5"}, "[40]": {"system": "MOLT-4"}, "[41]": {"system": "CCRF-CEM"}, "[42]": {"system": "A498"}, "[43]": {"system": "SW-620"}, "[44]": {"system": "COLO 205"}, "[45]": {"system": "RXF 393"}, "[46]": {"system": "HCC 2998"}, "[47]": {"system": "A549"}, "[48]": {"system": "SNB-19"}, "[49]": {"system": "UACC-62"}, "[50]": {"system": "KM12"}, "[51]": {"system": "NCI-H23"}, "[52]": {"system": "HCT-116"}, "[53]": {"system": "MDA-N"}, "[54]": {"system": "HOP-62"}, "[55]": {"system": "CAKI-1"}, "[56]": {"system": "UO-31"}, "[57]": {"system": "RPMI-8226"}, "[58]": {"system": "HCT-15"}}, "note": "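These data come from cells grown in 96-well plates and exposed to compound for 48 hours at five concentrations. GI50 is the concentration that inhibits growth by half.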 The source made the active and inactive calls. No stated cut-off is given here; in the data, active = GI50 up to about 1.1 µM and inactive = higher.", "data": [{"smiles": "COc1ccc(C[N+](C)(C)N)cc1OC", "values": [{"measurement": "GI50", "setting": "[1]", "result": "> 10 µM (inactive)"}, {"measurement": "GI50", "setting": "[2]", "result": "> 10 µM (inactive)"}, {"measurement": "GI50", "setting": "[3]", "result": "> 10 µM (inactive)"}, {"measurement": "GI50", "setting": "[4]", "result": "> 10 µM (inactive)"}, {"measurement": "GI50", "setting": "[5]", "result": "> 10 µM (inactive)"}, {"measurement": "GI50", "setting": "[6]", "result": "> 10 µM (inactive)"}, {"measurement": "GI50", "setting": "[7]", "result": "> 100 µM (inactive)"}, {"measurement": "GI50", "setting": "[8]", "result": "> 10 µM (inactive)"}, {"measurement": "GI50", "setting": "[9]", "result": "> 10 µM (inactive)"}, {"measurement": "GI50", "setting": "[10]", "result": "> 100 µM (inactive)"}, {"measurement": "GI50", "setting": "[11]", "result": "> 10 µM (inactive)"}, {"measurement": "GI50", "setting": "[12]", "result": "> 10 µM (inactive)"}, {"measurement": "GI50", "setting": "[13]", "result": "> 10 µM (inactive)"}, {"measurement": "GI50", "setting": "[14]", "result": "> 10 µM (inactive)"}, {"measurement": "GI50", "setting": "[15]", "result": "> 100 µM (inactive)"}, {"measurement": "GI50", "setting": "[16]", "result": "> 10 µM (inactive)"}, {"measurement": "GI50", "setting": "[17]", "result": "> 10 µM (inactive)"}, {"measurement": "GI50", "setting": "[18]", "result": "4.03 µM (inactive)"}, {"measurement": "GI50", "setting": "[19]", "result": "> 10 µM (inactive)"}, {"measurement": "GI50", "setting": "[20]", "result": "> 100 µM (inactive)"}, {"measurement": "GI50", "setting": "[21]", "result": "> 100 µM (inactive)"}, {"measurement": "GI50", "setting": "[22]", "result": "> 10 µM (inactive)"}, {"measurement": "GI50", "setting": "[23]", "result": "> 10 µM (inactive)"}, {"measurement": "GI50", "setting": "[24]", "result": "> 10 µM (inactive)"}, {"measurement": "GI50", "setting": "[25]", "result": "> 10 µM (inactive)"}, {"measurement": "GI50", "setting": "[26]", "result": "> 10 µM (inactive)"}, {"measurement": "GI50", "setting": "[27]", "result": "> 10 µM (inactive)"}, {"measurement": "GI50", "setting": "[28]", "result": "> 10 µM (inactive)"}, {"measurement": "GI50", "setting": "[29]", "result": "> 10 µM (inactive)"}, {"measurement": "GI50", "setting": "[30]", "result": "> 10 µM (inactive)"}, {"measurement": "GI50", "setting": "[31]", "result": "> 10 µM (inactive)"}, {"measurement": "GI50", "setting": "[32]", "result": "> 10 µM (inactive)"}, {"measurement": "GI50", "setting": "[33]", "result": "> 10 µM (inactive)"}, {"measurement": "GI50", "setting": "[34]", "result": "> 10 µM (inactive)"}, {"measurement": "GI50", "setting": "[35]", "result": "> 10 µM (inactive)"}, {"measurement": "GI50", "setting": "[36]", "result": "> 10 µM (inactive)"}, {"measurement": "GI50", "setting": "[37]", "result": "> 10 µM (inactive)"}, {"measurement": "GI50", "setting": "[38]", "result": "> 10 µM (inactive)"}, {"measurement": "GI50", "setting": "[39]", "result": "> 10 µM (inactive)"}, {"measurement": "GI50", "setting": "[40]", "result": "> 10 µM (inactive)"}, {"measurement": "GI50", "setting": "[41]", "result": "> 10 µM (inactive)"}, {"measurement": "GI50", "setting": "[42]", "result": "> 100 µM (inactive)"}, {"measurement": "GI50", "setting": "[43]", "result": "> 10 µM (inactive)"}, {"measurement": "GI50", "setting": "[44]", "result": "> 10 µM (inactive)"}, {"measurement": "GI50", "setting": "[45]", "result": "> 100 µM (inactive)"}, {"measurement": "GI50", "setting": "[46]", "result": "> 10 µM (inactive)"}, {"measurement": "GI50", "setting": "[47]", "result": "> 10 µM (inactive)"}, {"measurement": "GI50", "setting": "[48]", "result": "> 10 µM (inactive)"}, {"measurement": "GI50", "setting": "[49]", "result": "> 100 µM (inactive)"}, {"measurement": "GI50", "setting": "[50]", "result": "> 10 µM (inactive)"}, {"measurement": "GI50", "setting": "[51]", "result": "> 10 µM (inactive)"}, {"measurement": "GI50", "setting": "[52]", "result": "> 10 µM (inactive)"}, {"measurement": "GI50", "setting": "[53]", "result": "> 10 µM (inactive)"}, {"measurement": "GI50", "setting": "[54]", "result": "> 10 µM (inactive)"}, {"measurement": "GI50", "setting": "[55]", "result": "> 10 µM (inactive)"}, {"measurement": "GI50", "setting": "[56]", "result": "> 100 µM (inactive)"}, {"measurement": "GI50", "setting": "[57]", "result": "> 10 µM (inactive)"}, {"measurement": "GI50", "setting": "[58]", "result": "> 10", "unit": "µM"}]}]}
